Measurements published in patent US20250136576A1, “Heterocyclic Compounds and Uses Thereof” (ACEA Therapeutics, Inc., priority 2021, published 2025).

System: KM12-luc cells
Assay: Cell proliferation and growth inhibition assay (CCK-8) in KM12-luc
Type: cell-based
Details: KM12-Luc, 72 h, KM12-luc cells, treated with test compounds for 72 hrs, CCK-8 viability; read-out: NTRK IC50 in KM12-luc
Method in brief: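 IC50 values were fitted by sigmoidal dose-response non-linear regression of CCK-8 OD450 absorbance after 1-4 hrs with reagent. Culture media were IMDM for MV-4-11, RPMI 1640 for H1975 and DMEM for KM12-luc, each with 10% FBS at 37 °C, 5% CO2.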

SMILES | IC50
CC(=O)Nc1cc(Nc2nc3c(c(-c4cn(C)c5ccccc45)n2)COCC3)ccc1N(C)CCN(C)C [Compound 257a, N-(2-((2-(dimethylamino)ethyl)(methyl)amino)-5-((4-(1-methyl-1H-indol-3-yl)-7,8-dihydro-5H-pyrano[4,3-d]pyrimidin-2-yl)amino)phenyl)acetamide] | > 10000 nM
CC(=O)Nc1cc(Nc2ncc(Cl)c(-c3cn(C)c4ccccc34)n2)ccc1N(C)C(=O)CN(C)C [Compound 403, N-(2-acetamido-4-((5-chloro-4-(1-methyl-1H-indol-3-yl)pyrimidin-2-yl)amino)phenyl)-2-(dimethylamino)-N-methylacetamide] | 46.5 nM
COc1cnc(Nc2ccc(N3CC[C@@H](N(C)C)C3)c(NC(C)=O)c2)nc1-c1cn(C)c2c(F)cccc12 [Compound R-281, (R)—N-(2-(3-(dimethylamino)pyrrolidin-1-yl)-5-((4-(7-fluoro-1-methyl-1H-indol-3-yl)-5-methoxypyrimidin-2-yl)amino)phenyl)acetamide] | 121 nM
CN(C)[C@H]1CCN(c2ccc(Nc3ncc(Cl)c(-c4c[nH]c5c(F)cccc45)n3)cc2N)C1 [Compound S-414, (S)—N^1-(5-chloro-4-(7-fluoro-1H-indol-3-yl)pyrimidin-2-yl)-4-(3-(dimethylamino)pyrrolidin-1-yl)benzene-1,3-diamine] | 50.1 nM
CC(=O)Nc1cc(Nc2ncc(C(F)(F)F)c(-c3cn(C)c4cc(F)c(F)cc34)n2)ccc1N(C)CCN(C)C [Compound 355, N-(5-((4-(5,6-difluoro-1-methyl-1H-indol-3-yl)-5-(trifluoromethyl)pyrimidin-2-yl)amino)-2-((2-(dimethylamino)ethyl)(methyl)amino)phenyl)acetamide] | 70.4 nM
CC(=O)Nc1cc(Nc2ncc(Cl)c(-c3cn(C)c4c(F)cccc34)n2)ccc1N(C)CCN(C)C [Compound 418, N-(5-((5-chloro-4-(7-fluoro-1-methyl-1H-indol-3-yl)pyrimidin-2-yl)amino)-2-((2-(dimethylamino)ethyl)(methyl)amino)phenyl)acetamide] | 79.2 nM
CCC(=O)Nc1cccc(Nc2ncc(Cl)c(Nc3ccc(C4CCCNC4)cc3OC)n2)c1 (stereo not shown) [Compound 164, N-(3-((5-chloro-4-((2-methoxy-4-(piperidin-3-yl)phenyl)amino)pyrimidin-2-yl)amino)phenyl)propionamide] | 50.5 nM
CC(=O)Nc1cc(Nc2ncc(C(F)(F)F)c(-c3cn(C)c4c(F)cccc34)n2)ccc1OCCN(C)C [Compound 352, N-(2-(2-(dimethylamino)ethoxy)-5-((4-(7-fluoro-1-methy-1H-indol-3-yl)-5-(trifluoromethyl)pyrimidin-2-yl)amino)phenyl)acetamide] | 42.1 nM
CC(=O)Nc1cc(Nc2ncc(Cl)c(-c3cn(C)c4c(F)cccc34)n2)ccc1N1CC[C@@H](N(C)C)C1 [Compound R-415, (R)—N-(5-((5-chloro-4-(7-fluoro-1-methyl-1H-indol-3-yl)pyrimidin-2-yl)amino)-2-(3-(dimethylamino)pyrrolidin-1-yl)phenyl)acetamide] | 66.7 nM
Cc1nc2cc(Nc3ncc(C(F)(F)F)c(-c4cn(C)c5ccccc45)n3)ccc2n1CCN(C)C [Compound 314b, 1-(2-(dimethylamino)ethyl)-2-methyl-N-(4-(1-methyl-1H-indol-3-yl)-5-(trifluoromethyl)pyrimidin-2-yl)-1H-benzo[d]imidazol-5-amine] | 139 nM
CN(C)CCN(C)c1ccc(Nc2nc(Oc3cccc(N)c3)c3cc[nH]c3n2)cc1 [Compound 184, N^1-(4-(3-aminophenoxy)-7H-pyrrolo[2,3-d]pyrimidin-2-yl)-N^4-(2-(dimethylamino)ethyl)-N^4-methylbenzene-1,4-diamine] | 407 nM
COc1cccc2c(-c3nc(Nc4ccc(N5CC[C@H](N(C)C)C5)c(N)c4)ncc3C(F)(F)F)cn(C)c12 [Compound S-390, (S)-4-(3-(dimethylamino)pyrrolidin-1-yl)-N^1-(4-(7-methoxy-1-methyl-1H-indol-3-yl)-5-(trifluoromethyl)pyrimidin-2-yl)benzene-1,3-diamine] | 44.6 nM
CN(C)CCN(C)c1ccc(Nc2ncc(C(F)(F)F)c(-c3cn(C)c4ccc(F)cc34)n2)cc1NCC(F)(F)F [Compound 327, N^1-(2-(dimethylamino)ethyl)-N^4-(4-(5-fluoro-1-methyl-1H-indol-3-yl)-5-(trifluoromethyl)pyrimidin-2-yl)-N^1-methyl-N^2-(2,2,2-trifluoroethyl)benzene-1,2,4-triamine] | 260 nM
COc1cccc2c(-c3nc(Nc4ccc(N5CC[C@H](N(C)C)C5)c(N)c4)ncc3Cl)cn(C)c12 [Compound S-439, (S)—N^1-(5-chloro-4-(7-methoxy-1-methyl-1H-indol-3-yl)pyrimidin-2-yl)-4-(3-(dimethylamino)pyrrolidin-1-yl)benzene-1,3-diamine] | 150 nM
CC(=O)Nc1cc(Nc2ncc(C(F)(F)F)c(-c3c[nH]c4ccccc34)n2)cc(F)c1N(C)CCN(C)C [Compound 299a, N-(5-((4-(1H-indol-3-yl)-5-(trifluoromethyl)pyrimidin-2-yl)amino)-2-((2-(dimethylamino)ethyl)(methyl)amino)-3-fluorophenyl)acetamide] | 48.1 nM
CN1CCN(c2ccc(C(=O)Nc3c[nH]c4ccc(Cc5cc(F)cc(F)c5)cc34)c(NC3CCOCC3)c2)CC1 [Compound 505, N-(5-(3,5-difluorobenzyl)-1H-indol-3-yl)-4-(4-methylpiperazin-1-yl)-2-((tetrahydro-2H-pyran-4-yl)amino)benzamide] | > 1000 nM
CCN(C(=O)CN(C)C)c1ccc(Nc2ncc(Cl)c(-c3c[nH]c4ccccc34)n2)cc1NC(C)=O [Compound 449, N-(2-acetamido-4-((5-chloro-4-(1H-indol-3-yl)pyrimidin-2-yl)amino)phenyl)-2-(dimethylamino)-N-ethylacetamide] | > 1000 nM
CN(C)CCN(C)c1ccc(Nc2ncc(C(F)(F)F)c(-c3cn(C)c4ccc(F)cc34)n2)cc1N [Compound 326, N^1-(2-(dimethylamino)ethyl)-N^4-(4-(5-fluoro-1-methyl-1H-indol-3-yl)-5-(trifluoromethyl)pyrimidin-2-yl)-N^1-methylbenzene-1,2,4-triamine] | 58.2 nM
CCN(CCN(C)C)c1c(F)cc(Nc2nc(OC)c(OC)c(-c3cn(C)c4ccccc34)n2)cc1NC(C)=O [Compound 291d, N-(5-((4,5-dimethoxy-6-(1-methyl-1H-indol-3-yl)pyrimidin-2-yl)amino)-2-((2-(dimethylamino)ethyl) (ethyl)amino)-3-fluorophenyl)acetamide] | 3270 nM
COc1cccc2c(-c3nc(Nc4ccc(N(C)CCN(C)C)c(N)c4)ncc3Cl)cn(C)c12 [Compound 437, N^4-(5-chloro-4-(7-methoxy-1-methyl-H-indol-3-yl)pyrimidin-2-yl)-N^1-(2-(dimethylamino)ethyl)-N^1-methylbenzene-1,2,4-triamine] | 109 nM
CCN(CCN(C)C)c1c(F)cc(Nc2ncc(Cl)c(-c3cn(C)c4ccccc34)n2)cc1NC(C)=O [Compound 398, N-(5-((5-chloro-4-(1-methyl-1H-indol-3-yl)pyrimidin-2-yl)amino)-2-((2-(dimethylamino)ethyl)(ethyl)amino)-3-fluorophenyl)acetamide] | 196 nM
COc1cnc(Nc2ccc(N(CCN(C)C)C(C)=O)c(NC(C)=O)c2)nc1-c1c[nH]c2c(OC)cccc12 [Compound 286, N-(2-acetamido-4-((5-methoxy-4-(7-methoxy-1H-indol-3-yl)pyrimidin-2-yl)amino)phenyl)-N-(2-(dimethylamino)ethyl)acetamide] | 14.6 nM
CC(=O)Nc1cc(Nc2nc(-c3cn(C)c4ccc(C)cc34)c3cc[nH]c3n2)ccc1N(C)CCN(C)C [Compound 244, N-(5-((4-(1,5-dimethyl-1H-indol-3-yl)-7H-pyrrolo[2,3-d]pyrimidin-2-yl)amino)-2-((2-(dimethylamino)ethyl)(methyl)amino)phenyl)acetamide] | 348 nM
CC(=O)Nc1cc(Nc2ncc(C(F)(F)F)c(-c3cn(C)c4c(C)cccc34)n2)ccc1N(CCN(C)C)C(C)=O [Compound 370, N-(2-acetamido-4-((4-(1,7-dimethyl-1H-indol-3-yl)-5-(trifluoromethyl)pyrimidin-2-yl)amino)phenyl)-N-(2-(dimethylamino)ethyl)acetamide] | 77.1 nM
COc1c(N)nc(Nc2ccc(N(C)CCN(C)C)c(NC(C)=O)c2)nc1-c1cn(C)c2ccccc12 [Compound 295, N-(5-((4-amino-5-methoxy-6-(1-methyl-1H-indol-3-yl)pyrimidin-2-yl)amino)-2-((2-(dimethylamino)ethyl) (methyl)amino)phenyl) acetamide] | 159 nM
CNc1cc(Nc2nc(-c3cn(C)c4ccccc34)c3cc[nH]c3n2)ccc1N(C)CCN(C)C [Compound 192, N^1-(2-(dimethylamino)ethyl)-N^1,N^2-dimethyl-N^4-(4-(1-methyl-1H-indol-3-yl)-7H-pyrrolo[2,3-d]pyrimidin-2-yl)benzene-1,2,4-triamine] | 525 nM

Same assay, conditions: KM12-Luc, 72 h, read-out: NTRK IC50 in KM12-luc

SMILES | IC50
CC(=O)Nc1cc(Nc2nc(-c3cn(C)c4cc(F)ccc34)c3cc[nH]c3n2)ccc1N(C)CCN(C)C [Compound 232a, N-(2-((2-(dimethylamino)ethyl)(methyl)amino)-5-((4-(6-fluoro-1-methyl-1H-indol-3-yl)-7H-pyrrolo[2,3-d]pyrimidin-2-yl)amino)phenyl)acetamide] | 85.5 nM

Same assay, conditions: KM12-luc cells, treated with test compounds for 72 hrs, CCK-8 viability; read-out: NTRK IC50 in KM12-luc

SMILES | IC50
Cc1cccc2c(-c3nc(Nc4ccc(N5CC[C@H](N(C)C)C5)c(N)c4)ncc3Cl)cn(C)c12 [Compound S-431, (S)—N-(5-chloro-4-(1,7-dimethyl-1H-indol-3-yl)pyrimidin-2-yl)-4-(3-(dimethylamino)pyrrolidin-1-yl)benzene-1,3-diamine] | 39.6 nM
